Experimental data as given in PubChem BioAssay (NCI).
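A five-concentration, 48-hour dose response in 96-well plates underlies each endpoint, interpolated linearly between surrounding concentrations. Abbreviation: GI50, concentration required for 50% inhibition of growth. TGI is the concentration that stops growth completely.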

Key:
Test in all cases: NCI tumour cell line growth inhibition, 48 h
[1] = tested on: SN12C renal
[2] = tested on: SF-268 CNS
[3] = tested on: 786-0 renal
[4] = tested on: OVCAR-5 ovarian
[5] = tested on: HOP-62 NSCLC
[6] = tested on: MDA-MB-435
[7] = tested on: HCT-15 colon
[8] = tested on: HS 578T breast
[9] = tested on: BT-549 breast
[10] = tested on: MDA-MB-468 breast
[11] = tested on: ACHN renal
[12] = tested on: NCI-H522 lung
[13] = tested on: SNB-19 CNS
[14] = tested on: DU-145 prostate
[15] = tested on: K-562 leukemia
[16] = tested on: SK-OV-3 ovarian
[17] = tested on: RPMI-8226 leukemia
[18] = tested on: HL-60(TB) leukemia
[19] = tested on: NCI-H460 lung
[20] = tested on: UACC-257 melanoma
[21] = tested on: HCC-2998 colon
[22] = tested on: KM12 colon
[23] = tested on: IGROV1 ovarian
[24] = tested on: HCT-116 colon
[25] = tested on: CCRF-CEM leukemia
[26] = tested on: OVCAR-4 ovarian
[27] = tested on: SK-MEL-5 melanoma
[28] = tested on: OVCAR-8 ovarian
[29] = tested on: SW-620 colon
[30] = tested on: MOLT-4 leukemia
[31] = tested on: SR leukemia
[32] = tested on: NCI-H23 lung
[33] = tested on: OVCAR-3 ovarian
[34] = tested on: HT29 colon
[35] = tested on: SF-539 CNS
[36] = tested on: CAKI-1 renal
[37] = tested on: NCI-H226 lung
[38] = tested on: HOP-92 NSCLC
[39] = tested on: MCF7 breast
[40] = tested on: NCI/ADR-RES ovarian
[41] = tested on: A549 NSCLC
[42] = tested on: LOX IMVI melanoma
[43] = tested on: RXF 393 renal
[44] = tested on: PC-3 prostate
[45] = tested on: UACC-62 melanoma
[46] = tested on: SF-295 CNS
[47] = tested on: U251 CNS
[48] = tested on: EKVX NSCLC
[49] = tested on: A498 renal
[50] = tested on: SK-MEL-28 melanoma
[51] = tested on: T-47D breast
[52] = tested on: MALME-3M melanoma
[53] = tested on: M14 melanoma
[54] = tested on: TK-10 renal
[55] = tested on: COLO 205 colon

N#Cc1c(-c2ccc(F)cc2)nc(SCc2ccccc2)nc1N1CCNCC1
GI50 [1]: 13.8 µM
TGI [1]: 27.2 µM
GI50 [2]: 12.9 µM
TGI [2]: 29.1 µM
GI50 [3]: 11 µM
TGI [3]: 25.4 µM
GI50 [4]: 14.1 µM
TGI [4]: 27.6 µM
GI50 [5]: 13.2 µM
TGI [5]: 28.1 µM
GI50 [6]: 16.9 µM
TGI [6]: 31.5 µM
GI50 [7]: 5.05 µM
TGI [7]: 17.5 µM
GI50 [8]: 14.1 µM
TGI [8]: 32 µM
GI50 [9]: 13 µM
TGI [9]: 26.4 µM
GI50 [10]: 6.71 µM
TGI [10]: 21.3 µM
GI50 [11]: 14 µM
TGI [11]: 27.5 µM
GI50 [12]: 11.3 µM
TGI [12]: 25.1 µM
GI50 [13]: 14.2 µM
TGI [13]: 29.3 µM
GI50 [14]: 15 µM
TGI [14]: 29 µM
GI50 [15]: 2.21 µM
TGI [15]: 5.42 µM
GI50 [16]: 16 µM
TGI [16]: 29.5 µM
GI50 [17]: 3.99 µM
TGI [17]: 17.5 µM
GI50 [18]: 4.5 µM
TGI [18]: 17.3 µM
GI50 [19]: 9.2 µM
TGI [19]: 22.9 µM
GI50 [20]: 13.1 µM
TGI [20]: 26.2 µM
GI50 [21]: 1.76 µM
TGI [21]: 3.22 µM
GI50 [22]: 17.1 µM
TGI [22]: 32.8 µM
GI50 [23]: 14.7 µM
TGI [23]: 28.9 µM
GI50 [24]: 3.51 µM
TGI [24]: 11.6 µM
GI50 [25]: 13.9 µM
TGI [25]: 31 µM
GI50 [26]: 15.7 µM
TGI [26]: 34.2 µM
GI50 [27]: 15.7 µM
TGI [27]: 29.2 µM
GI50 [28]: 6.21 µM
TGI [28]: 21.8 µM
GI50 [29]: 3.38 µM
TGI [29]: 13.1 µM
GI50 [30]: 7.07 µM
TGI [30]: 21.2 µM
GI50 [31]: 1.92 µM
TGI [31]: 4.61 µM
GI50 [32]: 15.1 µM
TGI [32]: 29.3 µM
GI50 [33]: 14.3 µM
TGI [33]: 29.1 µM
GI50 [34]: 3.3 µM
TGI [34]: 10.5 µM
GI50 [35]: 15.7 µM
TGI [35]: 29.4 µM
GI50 [36]: 16 µM
TGI [36]: 29.7 µM
GI50 [37]: 13.8 µM
TGI [37]: 33.4 µM
GI50 [38]: 4.2 µM
TGI [38]: 18.1 µM
GI50 [39]: 3.94 µM
TGI [39]: 15.3 µM
GI50 [40]: 11.7 µM
TGI [40]: 27.4 µM
GI50 [41]: 8.1 µM
TGI [41]: 21.5 µM
GI50 [42]: 1.71 µM
TGI [42]: 3.33 µM
GI50 [43]: 3.14 µM
TGI [43]: 14.8 µM
GI50 [44]: 11.8 µM
TGI [44]: 25.8 µM
GI50 [45]: 14.4 µM
TGI [45]: 28.2 µM
GI50 [46]: 15.8 µM
TGI [46]: 30.1 µM
GI50 [47]: 4.36 µM
TGI [47]: 16.1 µM
GI50 [48]: 12 µM
TGI [48]: 24.8 µM
GI50 [49]: 13.1 µM
TGI [49]: 27.3 µM
GI50 [50]: 16.3 µM
TGI [50]: 30.3 µM
GI50 [51]: 10.1 µM
TGI [51]: 24.8 µM
GI50 [52]: 14.1 µM
TGI [52]: 28.2 µM
GI50 [53]: 12 µM
TGI [53]: 24.8 µM
GI50 [54]: 14.5 µM
TGI [54]: 28.4 µM
GI50 [55]: 1.66 µM
TGI [55]: 3.17 µM
